In the NIST ThermoML archive (doi:10.1016/j.jct.2018.01.024):
± gives the expanded uncertainty stated by the source.

Assay: mn = molality of the nth substance listed, in mol/kg
Conditions: Liquid

NC(N)=O [urea] + O
mass density [kg/m3]
Conditions	288.15 K	298.15 K	308.15 K
101 kPa, Vibrating tube method, m1 = 0.093	–	998.52 ± 0.09	995.45 ± 0.09
101 kPa, Vibrating tube method, m1 = 0.1063	–	998.73 ± 0.08	995.65 ± 0.08
101 kPa, Vibrating tube method, m1 = 0.141	–	999.27 ± 0.08	996.18 ± 0.08
101 kPa, Vibrating tube method, m1 = 0.152	–	999.45 ± 0.08	996.35 ± 0.08
101 kPa, Vibrating tube method, m1 = 0.1809	–	999.9 ± 0.08	996.79 ± 0.08
101 kPa, Vibrating tube method, m1 = 0.2423	–	1000.86 ± 0.08	997.71 ± 0.08
101 kPa, Vibrating tube method, m1 = 0.4362	–	1003.84 ± 0.08	1000.59 ± 0.08
101 kPa, Vibrating tube method, m1 = 0.5644	–	1005.78 ± 0.08	1002.47 ± 0.08
101 kPa, Vibrating tube method, m1 = 1.008	–	1012.3 ± 0.09	1008.78 ± 0.09
101 kPa, Vibrating tube method, m1 = 1.609	–	1020.67 ± 0.23	1016.91 ± 0.23
101 kPa, Vibrating tube method, m1 = 2.505	–	1032.29 ± 0.22	1028.21 ± 0.22
101 kPa, Vibrating tube method, m1 = 3.376	–	1042.7 ± 0.21	1038.34 ± 0.2
101 kPa, Vibrating tube method, m1 = 4.33	–	1053.2 ± 0.2	1048.55 ± 0.19
101 kPa, Vibrating tube method, m1 = 5.39	–	1063.84 ± 0.91	1058.96 ± 0.89
101 kPa, Vibrating tube method, m1 = 8	–	1086.63 ± 0.83	1081.22 ± 0.81
101 kPa, Vibrating tube method, m1 = 9.9	–	1100.56 ± 0.68	1094.97 ± 0.67
101 kPa, Vibrating tube method, m1 = 12.8	–	1118.82 ± 0.64	1112.9 ± 0.63
10000 kPa, Constant-volume piezometry, m1 = 0.1809	–	1004.31 ± 0.19	1001.1 ± 0.2
10000 kPa, Constant-volume piezometry, m1 = 0.4362	–	1008.22 ± 0.19	1004.89 ± 0.2
10000 kPa, Constant-volume piezometry, m1 = 0.5644	–	1010.14 ± 0.19	1006.76 ± 0.2
10000 kPa, Constant-volume piezometry, m1 = 1.609	–	1024.95 ± 0.26	1021.13 ± 0.27
10000 kPa, Constant-volume piezometry, m1 = 2.505	–	1036.5 ± 0.26	1032.37 ± 0.27
10000 kPa, Constant-volume piezometry, m1 = 3.376	–	1046.86 ± 0.27	1042.44 ± 0.27
10000 kPa, Constant-volume piezometry, m1 = 5.39	–	1067.88 ± 1.1	1062.95 ± 1.1
10000 kPa, Constant-volume piezometry, m1 = 8	–	1090.56 ± 1.1	1085.13 ± 1.1
10000 kPa, Constant-volume piezometry, m1 = 10.99	–	1111.68 ± 1.1	1105.95 ± 1.1
10000 kPa, Constant-volume piezometry, m1 = 12.8	–	1122.59 ± 1.1	1116.69 ± 1.1
25000 kPa, Constant-volume piezometry, m1 = 0.1809	–	1010.8 ± 0.28	1007.46 ± 0.29
25000 kPa, Constant-volume piezometry, m1 = 0.4362	–	1014.67 ± 0.28	1011.22 ± 0.29
25000 kPa, Constant-volume piezometry, m1 = 0.5644	–	1016.58 ± 0.28	1013.08 ± 0.29
25000 kPa, Constant-volume piezometry, m1 = 1.609	–	1031.23 ± 0.33	1027.31 ± 0.34
25000 kPa, Constant-volume piezometry, m1 = 2.505	–	1042.68 ± 0.34	1038.45 ± 0.35
25000 kPa, Constant-volume piezometry, m1 = 3.376	–	1052.93 ± 0.34	1048.43 ± 0.35
25000 kPa, Constant-volume piezometry, m1 = 5.39	–	1073.78 ± 1.1	1068.78 ± 1.1
25000 kPa, Constant-volume piezometry, m1 = 8	–	1096.33 ± 1.1	1090.83 ± 1.1
25000 kPa, Constant-volume piezometry, m1 = 10.99	–	1117.29 ± 1.2	1111.57 ± 1.2
25000 kPa, Constant-volume piezometry, m1 = 12.8	–	1128.17 ± 1.2	1122.24 ± 1.2
50000 kPa, Constant-volume piezometry, m1 = 0.1809	–	1021.19 ± 0.48	1017.66 ± 0.49
50000 kPa, Constant-volume piezometry, m1 = 0.4362	–	1025 ± 0.48	–
50000 kPa, Constant-volume piezometry, m1 = 0.5644	–	1026.87 ± 0.48	–
50000 kPa, Constant-volume piezometry, m1 = 1.609	–	1041.28 ± 0.51	–
50000 kPa, Constant-volume piezometry, m1 = 2.505	–	1052.51 ± 0.52	–
50000 kPa, Constant-volume piezometry, m1 = 3.376	–	1062.57 ± 0.53	–
50000 kPa, Constant-volume piezometry, m1 = 5.39	–	1083.08 ± 1.2	–
50000 kPa, Constant-volume piezometry, m1 = 8	–	1105.37 ± 1.2	–
50000 kPa, Constant-volume piezometry, m1 = 10.99	–	1126.18 ± 1.2	–
50000 kPa, Constant-volume piezometry, m1 = 12.8	–	1136.9 ± 1.3	–
75000 kPa, Constant-volume piezometry, m1 = 0.1809	–	1031.09 ± 0.68	–
75000 kPa, Constant-volume piezometry, m1 = 0.4362	–	1034.82 ± 0.68	–
75000 kPa, Constant-volume piezometry, m1 = 0.5644	–	1036.66 ± 0.68	–
75000 kPa, Constant-volume piezometry, m1 = 1.609	–	1050.81 ± 0.71	–
75000 kPa, Constant-volume piezometry, m1 = 2.505	–	1061.84 ± 0.72	–
75000 kPa, Constant-volume piezometry, m1 = 3.376	–	1071.73 ± 0.73	–
75000 kPa, Constant-volume piezometry, m1 = 5.39	–	1091.95 ± 1.3	–
75000 kPa, Constant-volume piezometry, m1 = 8	–	1113.92 ± 1.3	–
75000 kPa, Constant-volume piezometry, m1 = 10.99	–	1134.57 ± 1.4	–
75000 kPa, Constant-volume piezometry, m1 = 12.8	–	1145.19 ± 1.4	–
100000 kPa, Constant-volume piezometry, m1 = 0.1809	–	1040.52 ± 0.89	–
100000 kPa, Constant-volume piezometry, m1 = 0.4362	–	1044.19 ± 0.89	–
100000 kPa, Constant-volume piezometry, m1 = 0.5644	1049.66 ± 0.88	1046 ± 0.89	–
100000 kPa, Constant-volume piezometry, m1 = 1.609	1063.93 ± 0.91	1059.92 ± 0.92	–
100000 kPa, Constant-volume piezometry, m1 = 2.505	1075.04 ± 0.92	1070.84 ± 0.93	–
100000 kPa, Constant-volume piezometry, m1 = 3.376	1085.01 ± 0.93	1080.63 ± 0.94	–
100000 kPa, Constant-volume piezometry, m1 = 5.39	1105.48 ± 1.4	1100.6 ± 1.4	–
100000 kPa, Constant-volume piezometry, m1 = 8	1127.8 ± 1.5	1122.4 ± 1.5	–
100000 kPa, Constant-volume piezometry, m1 = 10.99	1148.53 ± 1.5	1142.75 ± 1.5	–
100000 kPa, Constant-volume piezometry, m1 = 12.8	1159.2 ± 1.5	1153.24 ± 1.5	–
